Reference: patent publication US20190218207A1, “3-(Pyridin-3-yl)-Acrylamide and N-(Pyridin-3-yl)-Acrylamide Derivatives and Their Use as PAK or NAMPT Modulators” (Karyopharm Therapeutics Inc., priority 2015, published 2019)
pIC50: −log10 of the molar value. Like-named read-outs stand apart in the source and are kept apart here.

Experiments:
[1] = test system: Z138 cells; assay: MTT cell proliferation assay, Z138 cells; assay type: cell-based, human
Description: (§1) The MTT cell proliferation assay was used to study the cytotoxic properties of the compounds. The assay was performed according to the method described by Roche Molecular Biochemicals, with minor modifications. The assay is based on the cleavage of the tetrazolium salt, MTT, in the presence of an electron-coupling reagent. The water-insoluble formazan salt produced must be solubilized in an additional step. Cells grown in a 96-well tissue culture plate were incubated with the MTT solution for approximately 4 hours. After this incubation period, a water-insoluble formazan dye formed. After solubilization, the formazan dye was quantitated using a scanning multi-well spectrophotometer (ELISA reader). […] The cells were seeded at 5,000-10,000 cells in each well of 96-well plate in 100 μL of fresh culture medium and were allowed to attach overnight. The stock solutions of the compounds were diluted in […] cell culture medium to obtain eight concentrations of each test compound, ranging from 1 nM to 30 μM. […] All optical densities were measured at 490 nm using a Vmax Kinetic Microplate Reader (Molecular Devices). In most cases, the assay was performed in duplicate and the results were presented as a mean percent inhibition to the negative control±SE. The following formula was used to calculate the percent of inhibition: Inhibition (%)=(1-(ODo/OD))×100.
(§2) The compounds were tested against MS751, Z138 and 3T3 cells. The MS751 cell line is derived from a metastasis to lymph node of human cervix from a patient diagnosed with squameous cell carcinoma of the cervix. The Z138 cell line is a mature B-cell acute lymphoblastic leukemia cell line derived from a patient with chronic lumphocytic leukemia. 3T3 cells are standard fibroblast cells; they were originally isolated from Swiss mouse embryo tissue.

[2] = test system: 3T3 cells; assay: MTT cell proliferation assay, 3T3 cells; assay type: cell-based, mouse; settings: 3T3 fibroblast cells, incubation approximately 64-72 hours
Description: as §1, §2

[3] = test system: MS751 cells; assay: MTT cell proliferation assay, MS751 cells; assay type: cell-based, human; settings: incubation approximately 64-72 hours, read-out: MTT Assay IC50, MS 751
Description: as §1, §2

[4] = Homo sapiens, Z-138, incubation approximately 64-72 hours
[5] = incubation approximately 64-72 hours, read-out: MTT Assay IC50, Z-138

In the case of Nc1ccc(/C=C/C(=O)NCc2ccc(-c3ccc(-c4ccc(C(=O)N5CCC(F)(F)CC5)cc4)cc3-c3cccc(Cl)c3)o2)cn1 [Compound A009, (E)-3-(6-aminopyridin-3-yl)-N-((5-(3″-chloro-4-(4,4-difluoropiperidine-1-carbonyl)-[1,1′:3′,1″-terphenyl]-4′-yl)furan-2-yl)methyl)acrylamide], the pIC50 [1, 4] was over 6.00, the pIC50 ([2]; Mus musculus, NIH3T3) was 5.30 to 6.00 and the pIC50 ([3]; Homo sapiens) was over 6.00.

Nc1ccc(/C=C/C(=O)NCc2nnc(-c3ccc(-c4ccc(C(=O)N5CCC(F)(F)CC5)cc4)cc3-c3ccc(F)cc3)o2)cn1 [Compound A010, (E)-3-(6-aminopyridin-3-yl)-N-((5-(4-(4,4-difluoropiperidine-1-carbonyl)-4″-fluoro-[1,1′:3′,1″-terphenyl]-4′-yl)-1,3,4-oxadiazol-2-yl)methyl)acrylamide] was tested, and the pIC50 [1, 4] was over 6.00, the pIC50 ([2]; Mus musculus, NIH3T3) was under 5.00 and the pIC50 ([3]; Homo sapiens) was over 6.00.

Work on Nc1ccc(/C=C/C(=O)NCc2ccc(-c3ccc(-c4ccc(C(=O)N5CCC(F)(F)CC5)cc4)cc3-c3ccc(F)cc3)[nH]2)cn1 [Compound A011, (E)-3-(6-aminopyridin-3-yl)-N-((5-(4-(4,4-difluoropiperidine-1-carbonyl)-4″-fluoro-[1,1′:3′,1″-terphenyl]-4′-yl)-1H-pyrrol-2-yl)methyl)acrylamide] yielded a pIC50 [1, 4] of over 6.00, a pIC50 ([2]; Mus musculus, NIH3T3) of under 5.00 and a pIC50 ([3]; Homo sapiens) of 5.30 to 6.00.

For Cc1c(CNC(=O)/C=C/c2ccc(N)nc2)sc(-c2ccc(-c3ccc(C(=O)N4CC(F)C4)cc3)cc2-c2ccc(F)cc2)c1C [Compound A013, (E)-3-(6-aminopyridin-3-yl)-N-((5-(4″-fluoro-4-(3-fluoroazetidine-1-carbonyl)-[1,1′:3′,1″-terphenyl]-4′-yl)-3,4-dimethylthiophen-2-yl)methyl)acrylamide], the pIC50 [1, 4] was over 6.00, the pIC50 ([2]; Mus musculus, NIH3T3) was under 5.00 and the pIC50 ([3]; Homo sapiens) was 5.30 to 6.00.

In the case of Cc1cc(-c2ccc(-c3ccc(C(=O)N4CC(F)C4)cc3)cc2C(F)(F)F)sc1CNC(=O)/C=C/c1ccc(N)nc1 [Compound A014, (E)-3-(6-aminopyridin-3-yl)-N-((5-(4′-(3-fluoroazetidine-1-carbonyl)-3-(trifluoromethyl)-[1,1′-biphenyl]-4-yl)-3-methylthiophen-2-yl)methyl)acrylamide], the pIC50 [1, 4] was over 6.00, the pIC50 ([2]; Mus musculus, NIH3T3) was 5.00 to 5.30 and the pIC50 ([3]; Homo sapiens) was over 6.00.

Nc1ccc(/C=C/C(=O)NCc2ccc(-c3ccc(-c4ccc(C(=O)N5CC(F)(F)C5)cc4)cc3C(F)(F)F)o2)cn1 [Compound A015, (E)-3-(6-aminopyridin-3-yl)-N-((5-(4′-(3,3-difluoroazetidine-1-carbonyl)-3-(trifluoromethyl)-[1,1′-biphenyl]-4-yl)furan-2-yl)methyl)acrylamide] was tested, and the pIC50 [1, 4] was over 6.00, the pIC50 ([2]; Mus musculus, NIH3T3) was under 5.00 and the pIC50 ([3]; Homo sapiens) was over 6.00.

Cc1c(CNC(=O)/C=C/c2ccc(N)nc2)sc(-c2ccc(-c3ccc(C(=O)N4CC(F)C4)cc3)cc2C(F)(F)F)c1C [Compound A016, (E)-3-(6-aminopyridin-3-yl)-N-((5-(4′-(3-fluoroazetidine-1-carbonyl)-3-(trifluoromethyl)-[1,1′-biphenyl]-4-yl)-3,4-dimethylthiophen-2-yl)methyl)acrylamide] gave a pIC50 [1, 4] of under 5.00, a pIC50 ([2]; Mus musculus, NIH3T3) of under 5.00 and a pIC50 ([3]; Homo sapiens) of under 5.00.

Molecule Cc1c(CNC(=O)/C=C/c2ccc(N)nc2)sc(-c2ccc(C3CC3C(=O)N3CC(F)C3)cc2C(F)(F)F)c1C (stereo not drawn) [Compound A017, (E)-3-(6-aminopyridin-3-yl)-N-((5-(4-(2-(3-fluoroazetidine-1-carbonyl)cyclopropyl)-2-(trifluoromethyl)phenyl)-3,4-dimethylthiophen-2-yl)methyl)acrylamide] has a pIC50 [1, 4] of over 6.00, a pIC50 ([2]; Mus musculus, NIH3T3) of under 5.00 and a pIC50 ([3]; Homo sapiens) of 5.30 to 6.00.

With Nc1ccc(/C=C/C(=O)NCc2nnc(-c3ccc(-c4ccc(C(=O)N5CC(F)(F)C5)cc4)cc3C(F)(F)F)o2)cn1 [Compound A018, (E)-3-(6-aminopyridin-3-yl)-N-((5-(4′-(3,3-difluoroazetidine-1-carbonyl)-3-(trifluoromethyl)-[1,1′-biphenyl]-4-yl)-1,3,4-oxadiazol-2-yl)methyl)acrylamide] the pIC50 [1, 4] was over 6.00, the pIC50 ([2]; Mus musculus, NIH3T3) was under 5.00 and the pIC50 ([3]; Homo sapiens) was over 6.00.

In the case of Nc1ccc(/C=C/C(=O)NCc2cnc(-c3ccc(-c4ccc(C(=O)N5CC(F)(F)C5)cc4)cc3C(F)(F)F)o2)cn1 [Compound A019, (E)-3-(6-aminopyridin-3-yl)-N-((2-(4′-(3,3-difluoroazetidine-1-carbonyl)-3-(trifluoromethyl)-[1,1′-biphenyl]-4-yl)oxazol-5-yl)methyl)acrylamide], the pIC50 [1, 4] was over 6.00, the pIC50 ([2]; Mus musculus, NIH3T3) was 5.30 to 6.00 and the pIC50 ([3]; Homo sapiens) was over 6.00.

In the case of Nc1ccc(/C=C/C(=O)NCc2cnc(-c3ccc(-c4ccc(C(=O)N5CC(F)C5)cc4F)cc3C(F)(F)F)o2)cn1 [Compound A020, (E)-3-(6-aminopyridin-3-yl)-N-((2-(2′-fluoro-4′-(3-fluoroazetidine-1-carbonyl)-3-(trifluoromethyl)-[1,1′-biphenyl]-4-yl)oxazol-5-yl)methyl)acrylamide], the pIC50 [1, 4] was over 6.00, the pIC50 ([2]; Mus musculus, NIH3T3) was 5.30 to 6.00 and the pIC50 ([3]; Homo sapiens) was over 6.00.

Nc1ccc(/C=C/C(=O)NCc2cnc(-c3ccc(-c4ccc(C(=O)N5CC(F)C5)cc4)cc3C(F)(F)F)o2)cn1 [Compound A021, (E)-3-(6-aminopyridin-3-yl)-N-((2-(4′-(3-fluoroazetidine-1-carbonyl)-3-(trifluoromethyl)-[1,1′-biphenyl]-4-yl)oxazol-5-yl)methyl)acrylamide] was tested, and the pIC50 [1, 4] was over 6.00, the pIC50 ([2]; Mus musculus, NIH3T3) was 5.30 to 6.00 and the pIC50 ([3]; Homo sapiens) was over 6.00.

With Nc1ccc(/C=C/C(=O)NCc2cnc(-c3ccc(-c4ccc(C(=O)N5CC(F)(F)C5)cc4F)cc3C(F)(F)F)o2)cn1 [Compound A022, (E)-3-(6-aminopyridin-3-yl)-N-((2-(4′-(3,3-difluoroazetidine-1-carbonyl)-2′-fluoro-3-(trifluoromethyl)-[1,1′-biphenyl]-4-yl)oxazol-5-yl)methyl)acrylamide] the pIC50 [1, 4] was over 6.00, the pIC50 ([2]; Mus musculus, NIH3T3) was over 6.00 and the pIC50 ([3]; Homo sapiens) was over 6.00.

For Cc1c(CNC(=O)/C=C/c2ccc(N)nc2)sc(-c2ccc(-c3ccc(C(=O)N4CCC(F)(F)CC4)cc3)cc2-c2ccc(F)cc2)c1C [Compound A023, (E)-3-(6-aminopyridin-3-yl)-N-((5-(4-(4,4-difluoropiperidine-1-carbonyl)-4″-fluoro-[1,1′:3′,1″-terphenyl]-4′-yl)-3,4-dimethylthiophen-2-yl)methyl)acrylamide], the pIC50 [1, 4] was over 6.00, the pIC50 ([2]; Mus musculus, NIH3T3) was under 5.00 and the pIC50 ([3]; Homo sapiens) was 5.30 to 6.00.

Molecule Nc1ccc(/C=C/C(=O)NCc2ncc(-c3ccc(-c4ccc(C(=O)N5CC(F)(F)C5)cc4)cc3C(F)(F)F)o2)cn1 [Compound A024, (E)-3-(6-aminopyridin-3-yl)-N-((5-(4′-(3,3-difluoroazetidine-1-carbonyl)-3-(trifluoromethyl)-[1,1′-biphenyl]-4-yl)oxazol-2-yl)methyl)acrylamide] has a pIC50 [1, 4] of over 6.00, a pIC50 ([2]; Mus musculus, NIH3T3) of 5.30 to 6.00 and a pIC50 ([3]; Homo sapiens) of over 6.00.

For Nc1ccc(/C=C/C(=O)NCc2ccc(-c3c(C(F)(F)F)cc(-c4ccc(C(=O)N5CC(F)(F)C5)cn4)cc3C(F)(F)F)o2)cn1 [Compound A025, (E)-3-(6-aminopyridin-3-yl)-N-((5-(4-(5-(3,3-difluoroazetidine-1-carbonyl)pyridin-2-yl)-2,6-bis(trifluoromethyl)phenyl)furan-2-yl)methyl)acrylamide], the pIC50 [1, 4] was over 6.00, the pIC50 ([2]; Mus musculus, NIH3T3) was over 6.00 and the pIC50 ([3]; Homo sapiens) was over 6.00.

Molecule Nc1ccc(/C=C/C(=O)NCc2ccc(-c3cc4cc(C(=O)N5CCC(F)(F)CC5)cnc4cc3C(F)(F)F)o2)cn1 [Compound A026, (E)-3-(6-aminopyridin-3-yl)-N-((5-(3-(4,4-difluoropiperidine-1-carbonyl)-7-(trifluoromethyl)quinolin-6-yl)furan-2-yl)methyl)acrylamide] has a pIC50 [1, 4] of over 6.00, a pIC50 ([2]; Mus musculus, NIH3T3) of 5.30 to 6.00 and a pIC50 ([3]; Homo sapiens) of over 6.00.

Molecule Cn1c(CNC(=O)/C=C/c2ccc(N)nc2)ccc1-c1ccc(-c2ccc(C(=O)N3CCC(F)(F)CC3)cc2)cc1-c1ccc(F)cc1 [Compound A-012, (E)-3-(6-aminopyridin-3-yl)-N-((5-(4-(4,4-difluoropiperidine-1-carbonyl)-4″-fluoro-[1,1′:3′,1″-terphenyl]-4′-yl)-1-methyl-1H-pyrrol-2-yl)methyl)acrylamide] has a pIC50 [1, 4] of under 5.00, a pIC50 ([2]; Mus musculus, NIH3T3) of under 5.00 and a pIC50 ([3]; Homo sapiens) of under 5.00.

“(E)-3-(6-aminopyridin-3-yl)-N-((5-(1-chloro-6-(4,4-difluoropiperidine-1-carbonyl)naphthalen-2-yl)furan-2-yl)methyl)acrylamide [Compound A004]” was tested, and the pIC50 [1, 5] was over 6.00, the pIC50 [2] was under 5.00 and the pIC50 [3] was over 6.00.

“(E)-(4′-(2′-(2-(6-aminopyridin-3-yl)vinyl)-5,5′-bioxazol-2-yl)-3′-(trifluoromethyl)biphenyl-4-yl)(3,3-difluoroazetidin-1-yl)methanone [Compound A027]” was tested, and the pIC50 [1, 5] was under 5.00, the pIC50 [2] was under 5.00 and the pIC50 [3] was under 5.00.
